Measurements: ChEMBL document CHEMBL3627608, “Crystal structures of human RIP2 kinase catalytic domain complexed with ATP-competitive inhibitors: Foundations for understanding inhibitor selectivity” (Bioorg Med Chem, 2015)

Assays:
[1] = molecular target: Mitogen-activated protein kinase kinase kinase kinase 1 (Homo sapiens) (UniProt Q92918); experiment: Inhibition of HPK1 (unknown origin) at 10 uM after 120 mins P33 radiolabeled kinase activity assay
[2] = molecular target: G protein-coupled receptor kinase 6 (Homo sapiens) (UniProt P43250); experiment: Inhibition of GRK6 (unknown origin) at 10 uM after 120 mins P33 radiolabeled kinase activity assay
[3] = molecular target: Mitogen-activated protein kinase kinase kinase 11 (Homo sapiens) (UniProt Q16584); experiment: Inhibition of MLK3 (unknown origin) at 10 uM after 120 mins P33 radiolabeled kinase activity assay
[4] = molecular target: T1, Dual specificity tyrosine-phosphorylation-regulated kinase 2 (Homo sapiens) (UniProt Q92630); experiment: Inhibition of DYRK2 (unknown origin) at 10 uM after 120 mins P33 radiolabeled kinase activity assay
T1 sequence (whole entry): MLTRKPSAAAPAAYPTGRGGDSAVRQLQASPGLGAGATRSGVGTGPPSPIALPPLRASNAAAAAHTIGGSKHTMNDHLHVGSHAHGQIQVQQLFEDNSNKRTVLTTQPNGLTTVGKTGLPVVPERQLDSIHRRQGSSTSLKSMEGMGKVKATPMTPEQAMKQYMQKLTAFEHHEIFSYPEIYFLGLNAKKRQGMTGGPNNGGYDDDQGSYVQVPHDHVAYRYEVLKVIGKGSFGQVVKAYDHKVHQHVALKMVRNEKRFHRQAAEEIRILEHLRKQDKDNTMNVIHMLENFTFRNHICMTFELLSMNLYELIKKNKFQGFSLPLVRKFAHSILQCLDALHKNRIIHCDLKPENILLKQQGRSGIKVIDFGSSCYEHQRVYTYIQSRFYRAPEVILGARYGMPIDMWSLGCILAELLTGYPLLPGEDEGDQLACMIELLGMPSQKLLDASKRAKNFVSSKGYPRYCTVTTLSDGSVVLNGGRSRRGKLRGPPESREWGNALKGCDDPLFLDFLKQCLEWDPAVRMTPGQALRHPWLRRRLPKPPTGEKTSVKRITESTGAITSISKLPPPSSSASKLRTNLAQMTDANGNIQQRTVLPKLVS

[5] = molecular target: T2, Serine/threonine-protein kinase Nek1 (Homo sapiens) (UniProt Q96PY6); experiment: Inhibition of NEK1 (unknown origin) at 10 uM after 120 mins P33 radiolabeled kinase activity assay
T2 sequence (whole entry): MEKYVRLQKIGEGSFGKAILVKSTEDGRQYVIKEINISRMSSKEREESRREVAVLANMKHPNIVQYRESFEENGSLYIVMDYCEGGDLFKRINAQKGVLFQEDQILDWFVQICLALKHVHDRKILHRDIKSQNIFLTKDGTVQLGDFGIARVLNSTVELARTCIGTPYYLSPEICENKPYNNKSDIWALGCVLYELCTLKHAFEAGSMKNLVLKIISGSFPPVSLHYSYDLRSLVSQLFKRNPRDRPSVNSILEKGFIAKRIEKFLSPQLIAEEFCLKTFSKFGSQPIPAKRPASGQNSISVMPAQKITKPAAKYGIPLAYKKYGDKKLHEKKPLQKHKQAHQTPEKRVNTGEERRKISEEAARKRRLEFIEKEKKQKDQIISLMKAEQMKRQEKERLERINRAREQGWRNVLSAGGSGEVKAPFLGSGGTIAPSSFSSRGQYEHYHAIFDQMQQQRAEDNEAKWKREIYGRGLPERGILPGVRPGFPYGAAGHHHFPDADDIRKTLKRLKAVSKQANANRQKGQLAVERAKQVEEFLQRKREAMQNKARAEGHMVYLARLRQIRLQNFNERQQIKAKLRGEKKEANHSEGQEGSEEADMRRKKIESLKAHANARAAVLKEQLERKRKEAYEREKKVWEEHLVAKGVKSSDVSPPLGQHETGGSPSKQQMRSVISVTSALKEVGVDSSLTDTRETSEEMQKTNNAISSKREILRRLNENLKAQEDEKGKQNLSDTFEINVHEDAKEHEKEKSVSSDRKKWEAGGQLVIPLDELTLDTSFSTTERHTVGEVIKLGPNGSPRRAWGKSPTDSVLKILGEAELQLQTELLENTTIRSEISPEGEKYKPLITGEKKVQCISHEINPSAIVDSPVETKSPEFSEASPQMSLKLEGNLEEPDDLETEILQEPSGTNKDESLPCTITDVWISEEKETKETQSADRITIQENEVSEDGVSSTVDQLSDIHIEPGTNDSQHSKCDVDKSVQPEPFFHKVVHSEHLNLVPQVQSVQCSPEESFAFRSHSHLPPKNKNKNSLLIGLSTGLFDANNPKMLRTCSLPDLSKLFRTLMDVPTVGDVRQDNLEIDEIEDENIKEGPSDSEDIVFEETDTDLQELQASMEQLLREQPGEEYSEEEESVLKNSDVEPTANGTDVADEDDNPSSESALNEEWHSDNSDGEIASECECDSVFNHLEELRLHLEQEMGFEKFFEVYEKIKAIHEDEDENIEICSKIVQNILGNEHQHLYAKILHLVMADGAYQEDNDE

[6] = molecular target: Bone morphogenetic protein receptor type-1A (Homo sapiens) (UniProt P36894); experiment: Inhibition of ALK3 (unknown origin) at 10 uM after 120 mins P33 radiolabeled kinase activity assay
[7] = molecular target: Ephrin type-A receptor 5 (Homo sapiens) (UniProt P54756); experiment: Inhibition of EPHA5 (unknown origin) at 10 uM after 120 mins P33 radiolabeled kinase activity assay
[8] = molecular target: CDK9/cyclin T1 (Homo sapiens) (UniProt O60563+P50750); experiment: Inhibition of CDK9/cyclin T1 (unknown origin) at 10 uM after 120 mins P33 radiolabeled kinase activity assay; assay type: protein-complex assay
[9] = molecular target: Fibroblast growth factor receptor 4 (Homo sapiens) (UniProt P22455); experiment: Inhibition of FGFR4 (unknown origin) at 10 uM after 120 mins P33 radiolabeled kinase activity assay
[10] = molecular target: BDNF/NT-3 growth factors receptor (Homo sapiens) (UniProt Q16620); experiment: Inhibition of TRKB (unknown origin) at 10 uM after 120 mins P33 radiolabeled kinase activity assay
[11] = molecular target: CDK1/Cyclin E (Homo sapiens) (UniProt P06493+P24864); experiment: Inhibition of CDK1/cyclin E (unknown origin) at 10 uM after 120 mins P33 radiolabeled kinase activity assay; assay type: protein-complex assay
[12] = molecular target: Platelet-derived growth factor receptor beta (Homo sapiens) (UniProt P09619); experiment: Inhibition of PDGFRbeta (unknown origin) at 10 uM after 120 mins P33 radiolabeled kinase activity assay
Chain of Platelet-derived growth factor receptor beta (Homo sapiens) (P09619 whole entry): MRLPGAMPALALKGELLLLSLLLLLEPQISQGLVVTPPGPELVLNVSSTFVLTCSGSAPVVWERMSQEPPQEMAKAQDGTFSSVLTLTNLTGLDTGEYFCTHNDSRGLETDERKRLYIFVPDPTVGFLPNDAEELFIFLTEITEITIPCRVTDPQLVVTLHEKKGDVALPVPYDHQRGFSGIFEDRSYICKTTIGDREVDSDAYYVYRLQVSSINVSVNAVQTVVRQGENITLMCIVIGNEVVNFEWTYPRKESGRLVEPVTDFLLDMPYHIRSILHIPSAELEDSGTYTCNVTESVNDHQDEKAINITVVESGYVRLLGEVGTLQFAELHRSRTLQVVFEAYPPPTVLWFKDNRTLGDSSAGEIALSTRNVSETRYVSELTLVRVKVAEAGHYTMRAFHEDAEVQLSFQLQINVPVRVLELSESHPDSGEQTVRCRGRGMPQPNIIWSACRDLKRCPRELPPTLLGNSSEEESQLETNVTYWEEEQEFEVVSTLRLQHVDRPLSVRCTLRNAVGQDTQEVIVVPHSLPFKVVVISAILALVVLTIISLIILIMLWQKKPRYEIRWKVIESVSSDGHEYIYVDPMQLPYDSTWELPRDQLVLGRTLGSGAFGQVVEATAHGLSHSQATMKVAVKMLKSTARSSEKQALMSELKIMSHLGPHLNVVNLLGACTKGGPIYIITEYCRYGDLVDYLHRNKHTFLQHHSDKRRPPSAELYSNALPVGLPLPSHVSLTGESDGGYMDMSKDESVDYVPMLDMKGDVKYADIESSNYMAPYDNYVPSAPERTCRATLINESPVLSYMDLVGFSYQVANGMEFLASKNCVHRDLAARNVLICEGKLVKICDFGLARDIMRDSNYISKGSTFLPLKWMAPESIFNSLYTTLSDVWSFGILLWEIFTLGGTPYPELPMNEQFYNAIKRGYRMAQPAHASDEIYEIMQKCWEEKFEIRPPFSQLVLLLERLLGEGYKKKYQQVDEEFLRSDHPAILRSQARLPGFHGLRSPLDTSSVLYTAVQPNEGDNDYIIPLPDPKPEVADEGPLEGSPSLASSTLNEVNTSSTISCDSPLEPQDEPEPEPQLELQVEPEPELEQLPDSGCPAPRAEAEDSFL

Chain of Fibroblast growth factor receptor 4 (Homo sapiens) (P22455 22-802 limits assumed): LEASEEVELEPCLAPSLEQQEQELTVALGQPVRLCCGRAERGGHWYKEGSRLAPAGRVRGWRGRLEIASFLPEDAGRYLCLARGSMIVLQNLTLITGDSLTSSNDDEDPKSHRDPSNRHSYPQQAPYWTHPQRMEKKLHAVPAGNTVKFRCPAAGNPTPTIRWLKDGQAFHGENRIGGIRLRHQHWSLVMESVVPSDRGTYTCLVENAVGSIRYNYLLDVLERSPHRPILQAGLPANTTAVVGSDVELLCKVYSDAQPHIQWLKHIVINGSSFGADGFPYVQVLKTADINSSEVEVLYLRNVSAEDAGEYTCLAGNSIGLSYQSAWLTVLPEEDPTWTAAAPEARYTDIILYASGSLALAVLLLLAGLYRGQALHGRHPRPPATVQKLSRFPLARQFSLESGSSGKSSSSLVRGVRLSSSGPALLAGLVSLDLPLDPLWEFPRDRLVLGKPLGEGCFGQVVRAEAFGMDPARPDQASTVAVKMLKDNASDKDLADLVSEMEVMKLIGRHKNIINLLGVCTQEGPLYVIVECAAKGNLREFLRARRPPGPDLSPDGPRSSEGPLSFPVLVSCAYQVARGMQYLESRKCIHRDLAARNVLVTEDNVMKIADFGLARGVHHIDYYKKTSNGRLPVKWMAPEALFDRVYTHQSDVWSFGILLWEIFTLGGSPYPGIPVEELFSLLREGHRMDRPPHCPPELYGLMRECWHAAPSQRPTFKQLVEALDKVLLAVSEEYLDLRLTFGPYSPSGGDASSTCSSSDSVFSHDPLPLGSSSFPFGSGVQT
Chain of Bone morphogenetic protein receptor type-1A (Homo sapiens) (P36894 whole entry): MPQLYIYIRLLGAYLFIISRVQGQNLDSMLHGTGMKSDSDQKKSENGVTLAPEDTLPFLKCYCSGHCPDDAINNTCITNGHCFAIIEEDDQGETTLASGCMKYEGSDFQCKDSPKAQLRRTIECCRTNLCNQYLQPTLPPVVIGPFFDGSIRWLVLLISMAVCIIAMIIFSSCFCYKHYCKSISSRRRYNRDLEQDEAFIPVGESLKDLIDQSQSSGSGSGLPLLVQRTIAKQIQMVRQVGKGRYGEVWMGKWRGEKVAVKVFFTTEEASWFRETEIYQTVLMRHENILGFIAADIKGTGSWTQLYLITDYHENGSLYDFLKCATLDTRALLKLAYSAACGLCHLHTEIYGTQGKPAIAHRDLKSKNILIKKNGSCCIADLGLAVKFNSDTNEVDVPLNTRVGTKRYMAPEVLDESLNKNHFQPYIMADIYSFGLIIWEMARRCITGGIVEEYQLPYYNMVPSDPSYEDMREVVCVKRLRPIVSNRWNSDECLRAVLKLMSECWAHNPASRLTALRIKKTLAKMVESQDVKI
Chain of G protein-coupled receptor kinase 6 (Homo sapiens) (P43250 whole entry, looked up): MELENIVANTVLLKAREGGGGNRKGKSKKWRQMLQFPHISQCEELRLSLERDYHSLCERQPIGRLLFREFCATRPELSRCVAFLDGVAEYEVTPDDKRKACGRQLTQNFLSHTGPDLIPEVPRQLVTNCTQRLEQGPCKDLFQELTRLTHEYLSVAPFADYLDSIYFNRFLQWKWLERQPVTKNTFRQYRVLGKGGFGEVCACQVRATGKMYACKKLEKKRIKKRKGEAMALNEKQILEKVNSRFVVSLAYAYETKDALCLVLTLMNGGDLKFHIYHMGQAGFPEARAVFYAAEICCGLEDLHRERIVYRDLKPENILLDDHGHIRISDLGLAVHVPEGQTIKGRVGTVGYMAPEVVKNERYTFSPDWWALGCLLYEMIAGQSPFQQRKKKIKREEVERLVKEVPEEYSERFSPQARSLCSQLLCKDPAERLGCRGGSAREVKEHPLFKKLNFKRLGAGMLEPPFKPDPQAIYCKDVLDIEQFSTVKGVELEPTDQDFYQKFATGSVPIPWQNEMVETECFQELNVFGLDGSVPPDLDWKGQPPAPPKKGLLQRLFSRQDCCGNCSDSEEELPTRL
Chain of Ephrin type-A receptor 5 (Homo sapiens) (P54756 whole entry): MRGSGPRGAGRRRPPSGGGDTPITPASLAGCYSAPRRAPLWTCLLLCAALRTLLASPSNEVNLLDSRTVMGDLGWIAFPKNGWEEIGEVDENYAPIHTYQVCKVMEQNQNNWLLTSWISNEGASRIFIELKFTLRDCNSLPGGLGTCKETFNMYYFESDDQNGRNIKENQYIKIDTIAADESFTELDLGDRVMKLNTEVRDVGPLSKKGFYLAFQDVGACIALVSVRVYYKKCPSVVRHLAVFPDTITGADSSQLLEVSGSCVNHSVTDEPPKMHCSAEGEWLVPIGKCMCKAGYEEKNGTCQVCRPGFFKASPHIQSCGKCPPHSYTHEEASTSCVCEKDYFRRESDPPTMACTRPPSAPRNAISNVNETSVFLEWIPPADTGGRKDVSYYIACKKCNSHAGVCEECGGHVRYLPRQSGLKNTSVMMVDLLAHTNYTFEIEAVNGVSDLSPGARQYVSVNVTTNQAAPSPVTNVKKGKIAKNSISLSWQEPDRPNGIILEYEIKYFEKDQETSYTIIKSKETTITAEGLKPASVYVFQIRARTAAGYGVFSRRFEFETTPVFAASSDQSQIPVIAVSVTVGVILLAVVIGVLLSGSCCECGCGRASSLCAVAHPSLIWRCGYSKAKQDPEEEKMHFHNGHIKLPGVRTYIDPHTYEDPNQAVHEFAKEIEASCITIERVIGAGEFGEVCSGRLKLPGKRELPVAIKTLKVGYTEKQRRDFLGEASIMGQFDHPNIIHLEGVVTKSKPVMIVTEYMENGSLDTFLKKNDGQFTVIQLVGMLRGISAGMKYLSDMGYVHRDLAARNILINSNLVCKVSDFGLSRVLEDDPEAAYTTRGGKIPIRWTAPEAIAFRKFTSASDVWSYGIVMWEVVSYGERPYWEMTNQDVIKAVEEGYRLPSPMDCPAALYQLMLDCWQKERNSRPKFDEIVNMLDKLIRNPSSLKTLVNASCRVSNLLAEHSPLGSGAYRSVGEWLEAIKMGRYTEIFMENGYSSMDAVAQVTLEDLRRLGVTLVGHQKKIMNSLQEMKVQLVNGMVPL
Chain of Mitogen-activated protein kinase kinase kinase 11 (Homo sapiens) (Q16584 whole entry, looked up): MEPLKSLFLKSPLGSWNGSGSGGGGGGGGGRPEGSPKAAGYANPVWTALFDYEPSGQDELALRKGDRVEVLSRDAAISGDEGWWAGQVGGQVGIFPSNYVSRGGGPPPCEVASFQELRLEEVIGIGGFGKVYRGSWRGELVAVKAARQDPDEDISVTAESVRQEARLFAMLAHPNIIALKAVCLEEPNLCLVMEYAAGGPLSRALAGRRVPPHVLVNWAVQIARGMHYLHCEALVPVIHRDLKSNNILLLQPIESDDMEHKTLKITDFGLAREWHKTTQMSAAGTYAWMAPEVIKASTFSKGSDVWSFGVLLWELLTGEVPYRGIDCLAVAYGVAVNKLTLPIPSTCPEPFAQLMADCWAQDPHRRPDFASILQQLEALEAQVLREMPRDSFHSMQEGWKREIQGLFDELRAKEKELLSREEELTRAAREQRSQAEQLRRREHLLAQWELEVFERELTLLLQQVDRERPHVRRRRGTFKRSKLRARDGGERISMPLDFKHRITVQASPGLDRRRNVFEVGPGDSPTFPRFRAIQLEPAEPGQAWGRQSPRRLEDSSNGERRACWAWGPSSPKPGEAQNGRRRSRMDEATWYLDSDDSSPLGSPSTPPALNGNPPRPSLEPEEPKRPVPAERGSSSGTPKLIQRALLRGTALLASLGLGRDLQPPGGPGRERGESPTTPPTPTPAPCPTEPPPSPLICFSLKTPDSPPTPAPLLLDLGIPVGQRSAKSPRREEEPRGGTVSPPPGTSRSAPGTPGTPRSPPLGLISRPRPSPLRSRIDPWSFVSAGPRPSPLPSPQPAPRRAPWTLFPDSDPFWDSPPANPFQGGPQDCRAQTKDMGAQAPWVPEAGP

inhibition [1] | inhibition [2] | inhibition [3] | inhibition [4] | inhibition [5] | inhibition [6] | inhibition [7] | inhibition [8] | inhibition [9] | inhibition [10] | inhibition [11] | inhibition [12] | Compound
-3.48% | -7.62% | 6.84% | 11.5% | 2.5% | -9.9% | 20.2% | 5.79% | 3.75% | 4.41% | -2.74% | 11.1% | COCCNC(=O)c1ccc2c(c1)nc(-c1cnc(-c3ccc(Cl)cc3)[nH]1)n2CCOC
31.9% | -5.6% | 92.7% | 37.4% | 15.4% | 75.5% | 58% | 25.4% | 47.3% | 61.5% | 78.3% | 91% | CS(=O)(=O)c1cccc(Nc2nccc(-c3sc(N4CCOCC4)nc3-c3cccc(NS(=O)(=O)c4c(F)cccc4F)c3)n2)c1
57.6% | -8.96% | 60.1% | 77.8% | 12.5% | -6.2% | 95.5% | 78.7% | 73.3% | 96.7% | 72.2% | 99.5% | CC(C)(C)c1cc(NC(=O)Nc2ccc(Oc3ccncc3)cc2)no1
